Laboratory results: PMC9603178, “Human Claudin-Derived Peptides Block the Membrane Fusion Process of Zika Virus and Are Broad Flavivirus Inhibitors” (Microbiology Spectrum, 2022)
Where a SMILES comes first, the peptide text is derived from it. Where no end group is shown, it is not given here. [ ]: non-standard residue; d: D form.

How the values were obtained:
[1] = tested on: ZIKV (Brazil/2016/INMI1 strain); experiment: Dose-dependent effect on ZIKV infection of Vero E6 cells; type: cell-based, Zika virus; settings: MOI of 1, Brazil/2016/INMI1 strain, fitted dose-response model
Procedure: FIG 4 Amphipathicity was involved in the differences in potency between claudin-derived peptides. […] Three amino acids of interest at positions 11, 15, and 18 are indicated. (B) Sequences of the parental and modified peptides. The swapped amino acids are highlighted. (C) ZIKV (MOI of 1) was treated with 50 μM of the modified peptides described in (B) for 1 h. […] Left or right orientations of the helixes are indicated with an arrow and the hydrophobic faces of each peptide are shown with a black line. […] The dark line represents the fitted dose-response model for each peptide and the light area represents the 95% confidence interval of the model. The calculated IC50 is indicated.
A D-enantiomer of an alpha helix forms a mirrored left-handed helix (Fig. 4D) but retains the same physicochemical properties ([28]).

ZIKV [2] = experiment: ZIKV internalization assay in hCMEC/D3 cells; type: cell-based, Zika virus; settings: 2 h at 37°C
ZIKV [3] = experiment: ZIKV binding assay on hCMEC/D3 cells; type: cell-based, Zika virus
ZIKV [4] = experiment: ZIKV replication and production in TrHBMEC, HUVEC, A549 and HEK 293T cells; type: cell-based, Zika virus; settings: 50 μM peptide, MOI of 1, HUVEC, RT-qPCR and titration
SARS-CoV-2 = type: cell-based; settings: 50 μM, Vero E6 cells, MOI of 1, 72 h, flow cytometry
Caco-2 epithelial cells = settings: 50 μM, differentiated Caco-2 monolayers on Transwell, over 24 h, n = 3
HCV = tested on: HCV; set-up: method as in PMID 22378192; settings: Huh7.5.1 cells; cited from earlier work
ZIKV [5] = experiment: Treatment of concentrated ZIKV stock followed by 30-fold dilution and infection of hCMEC/D3; settings: ZIKV stock 1.5 × 10^7 PFU/mL treated with 10 μM for 1 h, diluted by a factor of 30, hCMEC/D3, 48 h
ZIKV E-mediated fusion = type: cell-based, Zika virus; settings: C6/36 infected with ZIKV MOI of 2 for 48 h, acidification 2 h, fusion index
ZIKV [6] = experiment: ZIKV viral production, supernatants of infected hCMEC/D3 cells titrated on Vero E6 cells; type: cell-based, Zika virus; settings: 50 μM peptide, MOI of 1, titrated on Vero E6
ZIKV [7] = experiment: Pretreatment of hCMEC/D3 cells with peptide before ZIKV infection; settings: 10 μM for 1 h, cells washed, then ZIKV MOI of 1 for 48 h, hCMEC/D3, RT-qPCR
HIV-1 = settings: 50 μM, human primary CD4+ T cells, 72 h, flow cytometry
ZIKV [8] = settings: for IC50: read-out: IC50, ZIKV infection in hCMEC/D3, ZIKV MOI of 1, hCMEC/D3, fitted dose-response model, R^2 0.9 (CL1.1) and 0.7 (CL7.1)

With `CC[C@@H](C)[C@@H](NC(=O)[C@@H](Cc1ccccc1)NC(=O)CNC(=O)[C@@H](CC(C)C)NC(=O)[C@@H](CC(C)C)NC(=O)[C@@H](CCC(N)=O)NC(=O)[C@@H](CC(C)C)NC(=O)CNC(=O)[C@@H](C)NC(=O)[C@@H](CC(N)=O)NC(=O)[C@@H](C)NC(=O)[C@H](N)CCSC)C(=O)N[C@H](CC(C)C)C(=O)N[C@H](C)C(=O)N[C@H](Cc1ccccc1)C(=O)N[C@H](CC(C)C)C(=O)NCC(=O)N[C@H](Cc1c[nH]c2ccccc12)C(=O)O` [D-CL1.1] (H-[dM][dA][dN][dA]G[dL][dQ][dL][dL]G[dF][dI][dL][dA][dF][dL]G[dW]-OH; N-terminus and C-terminus assumed) the “antiviral properties against YFV compared with CL1.1” value (YFV; Vero E6, MOI of 1, increasing concentrations (Fig. S6)) was “comparable to that of CL1.1”, the IC50 [1] was 0.67 ± 0.04 µM and the “antiviral properties against JEV compared with CL1.1” value (JEV) was “comparable to that of CL1.1”.

In the case of `O=C(N/N=C/c1ccc(O)c(O)c1)c1cc2ccccc2cc1O` [Dynasore, reference compound], the “reduction of viral internalization” value (ZIKV [2]; 100 μM, positive control, hCMEC/D3) is reported as 95%.

For Heparin [reference compound], the “reduction of viral binding” value (ZIKV [3]; 200 μg/mL, positive control, 1 h at 4°C, MOI of 10, hCMEC/D3) was 80%.

For MANAGLQLLGFILAFLGW [CL1.1], the “ZIKV replication and production” value (ZIKV [4]) was “undetectable”, the “antiviral activity against SARS-CoV-2 infection” value (SARS-CoV-2) was “No antiviral activity” and the electric transepithelial resistance (Caco-2 epithelial cells) was “did not alter”. For the same compound, the “antiviral activity against HCV infection” value (HCV) was “exhibited antiviral activity”, the “reduction of intracellular viral RNA levels” value (ZIKV [5]) was 80% and the “reduction of syncytium formation” value (ZIKV E-mediated fusion; 10 μM) was 80%. For the same compound, the “ZIKV internalization in hCMEC/D3 cells” value (ZIKV [2]; 10 μM, trypsin removal of surface virus, RT-qPCR) was “did not alter”, the IC50 (YFV; read-out: IC50, YFV, Vero E6, MOI of 1, YFV/17D strain, titration of supernatants) was 0.56 ± 0.05 µM and the “viral production (infectious particles in supernatants)” value (ZIKV [6]) was “below the detection limit of the assay”. The “cell susceptibility to ZIKV after pretreatment of cells” value (ZIKV [7]) was “did not affect cell susceptibility to ZIKV”, the “binding of ZIKV to hCMEC/D3 cells” value (ZIKV [3]; 10 μM, inoculum treated 1 h, adsorption 1 h at 4°C, MOI of 10, RT-qPCR) was “did not alter” and the IC50 [1] was 0.71 ± 0.05 µM. For the same compound, the “antiviral activity against HIV-1 infection” value (HIV-1) was “No antiviral activity”, the “intracellular viral RNA levels / impact on ZIKV infection” value (ZIKV [8]; 50 μM peptide, hCMEC/D3, MOI of 1, 48 h, RT-qPCR) was “below the threshold of detection” and the IC50 (ZIKV [8]) was about 0.87 µM.

With MANSGLQLLGFSMALLGW [CL7.1] the “ZIKV replication and production” value (ZIKV [4]) was “significantly reduced”, the “reduction of syncytium formation / fusion” value (ZIKV E-mediated fusion; 50 μM) was 40% and the “viral production (infectious particles in supernatants)” value (ZIKV [6]) was “significantly reduced”. The “reduction of viral RNA levels compared to untreated cells” value (ZIKV [8]; 50 μM peptide, inoculum treated 1 h, adsorption 2 h, MOI of 1, peptide kept 48 h, hCMEC/D3, RT-qPCR) was 2 fold, the “antiviral activity in the absence of pretreatment” value (ZIKV [8]; 50 μM, virus and peptide added simultaneously to the cell culture, hCMEC/D3) was “also detected” and the IC50 (ZIKV [8]) was 53 ± 13 µM.
